The results in this text go back to ChEMBL document CHEMBL4483862, “Open-source discovery of chemical leads for next-generation chemoprotective antimalarials” (2018).

This assay has as its system Plasmodium berghei. As to the kind of experiment: Luciferase/luciferin-expressing antifolate-resistant parasites were used to infect a culture of HepG2 cells that were pre-incubated with compounds. Infected hepatocytes emit light due to the luciferase reaction. Assay results are presented as the percent inhibition of light emission compared to control. […]. It is filed as functional. The settings on record: sporozoite; for IC90: read-out: LUCIFERASE INFECTION ASSAY - IC90.

The mark [1] stands for this setting: read-out: LUCIFERASE INFECTION ASSAY - IC50.

Each structure is given as a SMILES string.

As for `CCc1cccc2c(C3=NNC(=Nc4cccc(S(=O)(=O)N(C)C)c4)SC3)c[nH]c12`, the 90% effect concentration (IC90) stood at 3.4 µM. Besides, the 50% inhibitory concentration (IC50) (HEPG2TOX_HILL_SLOPE 2.11, HEPG2TOX_R_SQUARED 0.991, PBLUC_HILL_SLOPE 17, PBLUC_R_SQUARED 0.266, read-out: LUCIFERASE INFECTION ASSAY - IC50) was found to be 2.99 µM.
Take `O=C(c1cnc2cc3c(cc2c1)OCCCO3)c1cc(F)ccc1O`: the IC90 worked out at 3.65 µM. For the same compound, under setting [1], the IC50 came to 3.12 µM.
For the compound `CCn1c(=O)n(Cc2ncc(-c3cccc(Cl)c3)o2)c2ccccc21`, the 90% effect concentration (IC90) is greater than 10 µM. In addition, for the setting “PBLUC_HILL_SLOPE 1.51, PBLUC_R_SQUARED 0.651, read-out: LUCIFERASE INFECTION ASSAY - IC50”, the IC50 worked out at 5.23 µM.
Regarding `CC(C)S(=O)(=O)c1cscc1NC(=O)c1ccc(-c2cc(C(F)(F)F)nn2C)s1`, the concentration for an effect of 90% (IC90) is greater than 7.12 µM. The IC50 (PBLUC_HILL_SLOPE 12.2, PBLUC_R_SQUARED 0.329, read-out: LUCIFERASE INFECTION ASSAY - IC50) stood at 6.55 µM.
Regarding `O=C(NCc1ccc(-c2cccs2)s1)c1ccc([N+](=O)[O-])o1`, the IC90 was greater than 9.87 µM. The half-maximal inhibitory concentration (IC50) (HEPG2TOX_HILL_SLOPE 1.96, HEPG2TOX_R_SQUARED 0.945, PBLUC_HILL_SLOPE 1.03, PBLUC_R_SQUARED 0.326, read-out: LUCIFERASE INFECTION ASSAY - IC50) is greater than 9.87 µM.
Take `CCCCN1C(=O)C(=O)c2cc(Br)cc(C)c21`: the IC90 was greater than 10 µM. Also, the 50% inhibitory concentration (IC50) (PBLUC_HILL_SLOPE 2.24, PBLUC_R_SQUARED 0.667, read-out: LUCIFERASE INFECTION ASSAY - IC50) amounted to 4.61 µM.
Take `CC(C)c1ccccc1N(C(=O)Cc1ccc(-c2ccccc2)cc1)c1nc2ccccc2s1`: the IC90 is greater than 10 µM. Moreover, the IC50 (FFLUC_HILL_SLOPE 11.9, FFLUC_R_SQUARED 0.677, HEPG2TOX_HILL_SLOPE 16.8, HEPG2TOX_R_SQUARED 0.508, PBLUC_HILL_SLOPE 1.31, PBLUC_R_SQUARED 0.0526, read-out: LUCIFERASE INFECTION ASSAY - IC50) stood at 6.43 µM.
On to `Cc1ccccc1CNc1ncnc2sccc12`, for which the 90% effect concentration (IC90) was greater than 10 µM. The IC50 under setting [1] turned out to be 5.22 µM.
`O=C(Nc1nc(-c2cccs2)cs1)c1cc(-c2ccccc2)nn1-c1ccccc1`: the concentration for an effect of 90% (IC90) was greater than 10 µM. Also, under “FFLUC_HILL_SLOPE 3.07, FFLUC_R_SQUARED 0.622, PBLUC_HILL_SLOPE 1.11, PBLUC_R_SQUARED 0.202, read-out: LUCIFERASE INFECTION ASSAY - IC50”, the IC50 is greater than 10 µM.
As for `CC(C)c1ccc(N2C(=O)C=CC2=O)cc1`, the concentration for an effect of 90% (IC90) was greater than 15.3 µM. In addition, under “HEPG2TOX_HILL_SLOPE 8.61, HEPG2TOX_R_SQUARED 0.25, PBLUC_HILL_SLOPE 3.82, PBLUC_R_SQUARED 0.327, read-out: LUCIFERASE INFECTION ASSAY - IC50”, the IC50 was 9.69 µM.
Regarding `CC1(C(=O)NCc2ccco2)Cc2c(-c3ccc4c(c3)OCO4)ccnc2O1` (stereo not drawn), the concentration for an effect of 90% (IC90) was greater than 8.72 µM. The 50% inhibitory concentration (IC50) (FFLUC_HILL_SLOPE 0.436, FFLUC_R_SQUARED 0.176, HEPG2TOX_HILL_SLOPE 1.94, HEPG2TOX_R_SQUARED 0.783, PBLUC_HILL_SLOPE 1.2, PBLUC_R_SQUARED 0.613, read-out: LUCIFERASE INFECTION ASSAY - IC50) was found to be 2.28 µM.
`c1ccc(-c2cn3ccnc3c(NCc3ccncc3)n2)cc1`: the concentration for an effect of 90% (IC90) stood at 4.49 µM. Where the note is “HEPG2TOX_HILL_SLOPE 2.19, HEPG2TOX_R_SQUARED 0.99, PBLUC_HILL_SLOPE 12.4, PBLUC_R_SQUARED 0.482, read-out: LUCIFERASE INFECTION ASSAY - IC50”, the half-maximal inhibitory concentration (IC50) came out at 3.76 µM.
Take `Cc1c(C(=O)OCC(=O)N(Cc2ccccc2)Cc2ccccc2)sc2nc3n(c(=O)c12)CCC3`: the 90% effect concentration (IC90) worked out at 3.43 µM. Moreover, the IC50 under setting [1] stood at 3.04 µM.
Consider `N=C1C(=S)N(c2ccc(Cl)c(Cl)c2)C(=O)N1c1ccc(OC(F)(F)F)cc1`, for which the concentration for an effect of 90% (IC90) was greater than 7.6 µM. In addition, the IC50 (FFLUC_HILL_SLOPE 13.1, FFLUC_R_SQUARED 0.176, read-out: LUCIFERASE INFECTION ASSAY - IC50) is greater than 7.6 µM.
Take `O=C(COc1ccccc1C(=O)Nc1ccccc1)NC(c1ccc(F)cc1)c1cccs1` (stereo not drawn): the 90% effect concentration (IC90) is greater than 10 µM. Besides, the IC50 (FFLUC_HILL_SLOPE 12.2, FFLUC_R_SQUARED 0.17, PBLUC_HILL_SLOPE 2.56, PBLUC_R_SQUARED 0.393, read-out: LUCIFERASE INFECTION ASSAY - IC50) came to 7.16 µM.
On to `CC(Sc1nnc(/C=C/c2ccc(F)cc2)[nH]1)C(=O)N(Cc1ccccc1)Cc1ccccc1` (stereo not drawn), for which the 90% effect concentration (IC90) was determined as 3.74 µM. The IC50 (HEPG2TOX_HILL_SLOPE 2.54, HEPG2TOX_R_SQUARED 0.989, PBLUC_HILL_SLOPE 16.4, PBLUC_R_SQUARED 0.588, read-out: LUCIFERASE INFECTION ASSAY - IC50) was 3.27 µM.
With `CSC1=CC(=O)CC(C)(C)S1`, the IC90 is greater than 17.5 µM. Further, the half-inhibitory concentration (IC50) under setting [1] is greater than 17.5 µM.
For `O=C1C=C(NCc2ccccc2)CC(c2ccc(Cl)cc2)C1` (stereo not drawn), the IC90 was greater than 10.6 µM. The half-maximal inhibitory concentration (IC50) (HEPG2TOX_HILL_SLOPE 2.56, HEPG2TOX_R_SQUARED 0.714, PBLUC_HILL_SLOPE 1.97, PBLUC_R_SQUARED 0.212, read-out: LUCIFERASE INFECTION ASSAY - IC50) was 6.81 µM.
On to `Cc1cc(C(=O)CN2CCN(C)CC2)c(C)n1C(c1ccccc1)c1ccccc1`, for which the IC90 was greater than 10 µM. Also, the 50% inhibitory concentration (IC50) (PBLUC_HILL_SLOPE 2.18, PBLUC_R_SQUARED 0.339, read-out: LUCIFERASE INFECTION ASSAY - IC50) came out at 6.77 µM.
As to `O=C1C(c2ccccc2)=C(c2ccccc2)C(c2ccccc2)=C1c1ccccc1`, the concentration for an effect of 90% (IC90) is greater than 8.58 µM. Also, the IC50 (FFLUC_HILL_SLOPE 1.74, FFLUC_R_SQUARED 0.65, PBLUC_HILL_SLOPE 1.01, PBLUC_R_SQUARED 0.27, read-out: LUCIFERASE INFECTION ASSAY - IC50) came out at 4.04 µM.
Take `Cc1oc2c(c1C(=O)N1CCC(C)CC1)C(=O)c1ccccc1C2=O`: the IC90 is greater than 10 µM. For the same compound, the half-maximal inhibitory concentration (IC50) (HEPG2TOX_HILL_SLOPE 3.97, HEPG2TOX_R_SQUARED 0.955, PBLUC_HILL_SLOPE 1.55, PBLUC_R_SQUARED 0.65, read-out: LUCIFERASE INFECTION ASSAY - IC50) was found to be 2.73 µM.
For the compound `COc1cccc(-c2nc3ccnc(NCc4ccccc4)c3[nH]2)c1`, the IC90 was 7.99 µM. Where the note is “HEPG2TOX_HILL_SLOPE 1.62, HEPG2TOX_R_SQUARED 0.805, PBLUC_HILL_SLOPE 1.55, PBLUC_R_SQUARED 0.567, read-out: LUCIFERASE INFECTION ASSAY - IC50”, the IC50 came out at 1.93 µM.
As for `CC(=O)c1cccc(-c2cnc3ccc(-c4cccc(C(=O)NCCO)c4)nn23)c1`, the IC90 stood at 2.32 µM. For the same compound, the IC50 (HEPG2TOX_HILL_SLOPE 1.87, HEPG2TOX_R_SQUARED 0.674, PBLUC_HILL_SLOPE 4.19, PBLUC_R_SQUARED 0.651, read-out: LUCIFERASE INFECTION ASSAY - IC50) turned out to be 1.38 µM.
`CCCN(CCC)c1ccc(/C=C2\C=c3c(O)cccc3=C2O)cc1`: the IC90 stood at 3.37 µM. Also, the IC50 (HEPG2TOX_HILL_SLOPE 2.7, HEPG2TOX_R_SQUARED 0.839, PBLUC_HILL_SLOPE 2.95, PBLUC_R_SQUARED 0.682, read-out: LUCIFERASE INFECTION ASSAY - IC50) stood at 1.6 µM.
Take `Nn1c(Cc2ccccc2F)nnc1SCC(=O)NCc1ccc2c(c1)OCO2`: the 90% effect concentration (IC90) was greater than 10 µM. Also, the concentration for half-maximal inhibition (IC50) under setting [1] was greater than 10 µM.
Regarding `FC(F)(F)c1cccc(-c2cc3c(Nc4ccc5c(c4)OCCO5)nccc3[nH]2)c1`, the IC90 was 5.7 µM. Further, where the note is “HEPG2TOX_HILL_SLOPE 20.2, HEPG2TOX_R_SQUARED 0.64, PBLUC_HILL_SLOPE 4.68, PBLUC_R_SQUARED 0.558, read-out: LUCIFERASE INFECTION ASSAY - IC50”, the IC50 worked out at 3.56 µM.
In the case of `O=C(Nc1ccc(-n2ccc(C(F)(F)F)n2)cc1)c1cccs1`, the IC90 turned out to be 3.61 µM. The IC50 (PBLUC_HILL_SLOPE 1.9, PBLUC_R_SQUARED 0.777, read-out: LUCIFERASE INFECTION ASSAY - IC50) stood at 1.14 µM.
Regarding `Cc1ccccc1-c1cn2c(-c3cccc(C(=O)N4CCN(C)CC4)c3)cnc2cn1`, the IC90 is greater than 8.02 µM. For the same compound, the 50% inhibitory concentration (IC50) (PBLUC_HILL_SLOPE 1.06, PBLUC_R_SQUARED 0.743, read-out: LUCIFERASE INFECTION ASSAY - IC50) worked out at 3.76 µM.
In the case of `CCOC(=O)c1ccc2c(c1)nc(-c1ccc(Sc3ccc(C)cc3)c([N+](=O)[O-])c1)n2CC`, the IC90 was greater than 10 µM. For the same compound, the IC50 under setting [1] was greater than 10 µM.
Turning to `O=C1/C(=C/c2ccc(C(F)(F)F)cc2)CCC/C1=C\c1ccc(C(F)(F)F)cc1`, the IC90 turned out to be 7.87 µM. The IC50 (HEPG2TOX_HILL_SLOPE 11.7, HEPG2TOX_R_SQUARED 0.984, PBLUC_HILL_SLOPE 3.19, PBLUC_R_SQUARED 0.77, read-out: LUCIFERASE INFECTION ASSAY - IC50) worked out at 3.95 µM.
With `Cc1ccc(-c2nc3nc(N)n(C)c(=O)c3[nH]c2=O)cc1`, the 90% effect concentration (IC90) was greater than 10 µM. Moreover, the IC50 under setting [1] was greater than 10 µM.
Regarding `O=C(COc1nnc2ccccn12)Nc1cccc2ccccc12`, the IC90 was greater than 10 µM. Under setting [1], the IC50 is greater than 10 µM.
On to `C=CCc1c(C)nc2c(-c3ccccc3)cnn2c1N1CCN(CCO)CC1`, for which the IC90 is greater than 8.74 µM. Besides, the IC50 (PBLUC_HILL_SLOPE 1.51, PBLUC_R_SQUARED 0.304, read-out: LUCIFERASE INFECTION ASSAY - IC50) worked out at 2.98 µM.
On to `Cc1ccc(C(C)C)c(OCc2ccc(C(=O)N/N=C/c3cccc(O)c3O)cc2)c1`, for which the IC90 is greater than 10 µM. Further, the IC50 (HEPG2TOX_HILL_SLOPE 2.51, HEPG2TOX_R_SQUARED 0.938, PBLUC_HILL_SLOPE 16, PBLUC_R_SQUARED 0.0407, read-out: LUCIFERASE INFECTION ASSAY - IC50) worked out at 9.9 µM.
